Test results published in article PMC4058678 (The Biochemical journal, 2009).
Where two headings read alike, the source gives them in different places.

Legend:
[1] = molecular target: T1, myeloperoxidase (MPO) (Homo sapiens, UniProt P05164); assay: HOCl production by isolated MPO-H2O2-Cl− system; assay type: biochemical
[2] = molecular target: T1, myeloperoxidase (MPO); assay: HOCl production by isolated MPO-H2O2-Cl− system; assay type: biochemical; remark: listed apart in the source

T1 sequence (P05164 165-273): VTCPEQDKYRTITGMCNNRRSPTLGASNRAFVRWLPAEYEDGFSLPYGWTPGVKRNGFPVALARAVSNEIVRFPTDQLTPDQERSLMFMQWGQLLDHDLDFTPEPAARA
T1 sequence (P05164 279-745): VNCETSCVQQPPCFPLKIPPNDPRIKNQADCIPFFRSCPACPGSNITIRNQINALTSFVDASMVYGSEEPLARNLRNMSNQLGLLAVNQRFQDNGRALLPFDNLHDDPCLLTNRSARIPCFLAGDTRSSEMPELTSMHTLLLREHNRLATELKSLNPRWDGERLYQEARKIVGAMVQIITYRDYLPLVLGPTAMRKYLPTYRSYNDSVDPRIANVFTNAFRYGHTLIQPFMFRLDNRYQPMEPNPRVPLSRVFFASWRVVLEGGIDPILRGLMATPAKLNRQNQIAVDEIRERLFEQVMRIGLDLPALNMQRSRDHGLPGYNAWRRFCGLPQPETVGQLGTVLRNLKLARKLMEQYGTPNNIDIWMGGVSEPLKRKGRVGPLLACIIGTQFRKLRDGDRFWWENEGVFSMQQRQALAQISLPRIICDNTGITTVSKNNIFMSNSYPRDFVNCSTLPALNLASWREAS

CC1(C)CC(N)CC(C)(C)N1[O] [4-AminoTEMPO, 4-amino-2,2,6,6-tetramethylpiperidin-1-yloxyl]
IC50 [1]: 1200 nM

CC1(C)CC(N)C(C)(C)N1[O] (centres unmarked) [3-AminoPROXYL, 3-amino-2,2,5,5-tetramethylpyrrolidin-1-yloxyl]
IC50 [2]: 2700 nM
